Assay results from publication PMC12155470, “Novel Tetraene Macrodiolides Are Effective Inducers of Mitochondrial Apoptosis in Jurkat Cells” (International Journal of Molecular Sciences, 2025).
Read-outs that look alike come from different tables or passages of the source.

Key:
[1] = tested on: Jurkat; test: In vitro cytotoxic activity, 7-AAD flow cytometry, Jurkat; format: cell-based, Human; settings: Homo sapiens, Jurkat, 24 h, 24 h incubation, mean ± SD, triplicate
Text: (§1) The investigation focused on the assessment of the synthesized compounds’ toxicities, utilizing a panel of six diverse cell lines. The selection of cells was based on the specific features of their metabolism, namely, Jurkat, K562, U937, and HL60 cells are suspension cultures of oncohematologic origin, and HEK293 is a conditionally normal line transformed by adenovirus and often used as control cells along with fibroblasts. The normal fibroblast line (Wi-38) utilized in the experiment was diploid and was obtained from the lung tissue of an aborted fetus. The total cytotoxic activity of 16 compounds was studied using flow cytometry.
(§2) Human cancer cell lines, including Jurkat, K562, U937, HL60, and fibroblasts (Wi-38), were obtained from the European Authentic Cell Culture Collection and further cultured according to established standard protocols using sterile methods. The cells were cultivated in RPMI 1640 (for Jurkat and K562) and DMEM (for Wi-38 and HEK293) media (Gibco, Billings, MT, USA), with the addition of […] glutamine, 10% FBS (Sigma, Kanagawa, Japan), and 100 U/mL penicillin–streptomycin (Sigma). All cell types were cultivated in a humidified atmosphere containing 5% CO₂ at a temperature of 37 °C. Subculturing was performed at two- to three-day intervals. The cells were subsequently seeded into 24-well plates at a density of 5 × 10^4 cells per well and incubated overnight. Subsequent subculturing was then performed at two-day intervals, with a seeding density of 1 × 10^5 cells per 24-well plate, using RPMI medium with 10% FBS [49].
(§3) The dissolution of the compounds tested was initially performed in dimethyl sulfoxide (DMSO) with an initial solution of 100 mM in 10% DMSO. Subsequently, the solution was diluted in a complete culture medium, namely, Dulbecco’s medium, modified Eagle’s medium (DMEM), or Roswell Park Memorial Institute medium (RPMI). Substances were added at concentrations of 10, 1, 100, 10, 1, and 0.1 μM on the day after seeding and incubated for 24 h. Following this, the cells were washed with a phosphate-buffered saline (PBS) solution and stained with 7AAD dye, as per the manufacturer’s protocol for flow cytometry. The CC50 value, which characterizes the parameters of toxicity (i.e., the concentration of the compound required for 50% inhibition of cell viability in vitro), was calculated. logC versus % inhibition was plotted, and statistical data processing was performed using Excel and GraphPad Prism v.8.0.2 (San Diego, CA, USA, 2019). The data obtained from three independent experiments were expressed as the mean of three measurements for each concentration, with the standard deviation indicated as well. These values were then relative to the control values (0.1% DMSO), which were taken as 100%.
(§4) 7-AAD (7-aminoactinomycin D) dye (eBioscience™, San Diego, CA, USA) was used to assess cell viability. Following incubation with the test compounds, the cells were harvested, washed with a phosphate–salt buffer (PBS), and subjected to centrifugation at 400× g for five minutes. The cell sediment was resuspended in 200 μL of staining buffer for flow cytometry (PBS without calcium and magnesium, 2.5% FBS) and stained with a 1 mM 7-AAD dye solution for 15 min in the dark at room temperature. Subsequently, all samples, including experimental and control groups, were analyzed using a BD FACSAria™ III Cell Sorter flow cytometer (Milpitas, CA, USA).

[2] = tested on: K562; test: In vitro cytotoxic activity, 7-AAD flow cytometry, K562; format: cell-based, Human; settings: Homo sapiens, K562, 24 h, 24 h incubation, mean ± SD, triplicate
Text: as §1, §2, §3, §4

[3] = tested on: U937; test: In vitro cytotoxic activity, 7-AAD flow cytometry, U937; format: cell-based, Human; settings: 24 h incubation, mean ± SD, triplicate
Text: as §1, §2, §3, §4

[4] = tested on: HL60; test: In vitro cytotoxic activity, 7-AAD flow cytometry, HL60; format: cell-based; settings: Homo sapiens, HL-60, 24 h incubation, mean ± SD, triplicate
Text: as §1, §2, §3, §4

[5] = In vitro cytotoxic activity, 7-AAD flow cytometry, Hek293; format: cell-based; settings: human, HEK293 cells, conditionally normal line, 24 h incubation, mean ± SD
Text: as §1, §2, §3, §4

[6] = In vitro cytotoxic activity, 7-AAD flow cytometry, normal fibroblasts; format: cell-based; settings: human, Wi-38 normal lung fibroblasts, normal fibroblasts Wi-38, 24 h incubation, mean ± SD, read-out: Fibrobl. (CC50)
Text: as §1, §2, §3, §4

[7] = tested on: Jurkat, K562, U937, HEK293, and HeLa cell cultures; settings: cited from earlier work
[8] = tested on: Jurkat cells; test: Mitodamage assay (MitoSense Red, Annexin V-CF488A, 7-AAD); format: cell-based, Human; settings: compound at CC50 concentration, four hours, MitoSense Red
Procedure: To this end, MitoSense Red, a fluorescent dye that accumulates predominantly in mitochondria and responds to changes in membrane potential, was utilized. […] Two dyes commonly employed for detecting apoptosis in cells are annexin V and 7AAD. […] Therefore, the dissipation of mitochondrial membrane potential and the associated apoptosis process in Jurkat tumor cells were analyzed in response to exposure to synthesized macrodiolides. MitoSense Red, Annexin V-CF488A, and 7-AAD were used as dyes for this analysis (see Figure 3). A flow cytometry kit (FlowCellect™ MitoDamage Kit from Millipore, Hayward, CA USA) was utilized, as it facilitates a multiparametric evaluation of three markers of cell health. These markers include changes in mitochondrial potential (early apoptosis and cell stress), phosphatidylserine expression on the cell surface (late apoptosis), and membrane permeability (cell death). The method of the simultaneous detection of mitochondrial damage was performed according to the well-known technique.  Figure 3 Detection changes in mitochondrial membrane potential (ΔΨ) and coupled early and late apoptosis in Jurkat cells treated with compounds 9d, 8d, 7d, and 6d. Staurosporine and carbonyl cyanide-m-chlorophenylhydrazone were utilized as control compounds. The addition of all the tested compounds was executed at the CC50 concentration (refer to the provided table for the cytotoxicities of the synthesized compounds). The staining of cells was conducted using MitoSense Red, Annexin V-CF488A, and 7-AAD. The incubation period lasted for a duration of four hours. The presence of three *** (p < 0.001) and two asterisks ** (p < 0.005) indicates the significance of the observed differences between the values obtained in the control sample and the samples treated with the synthesized substances (comparison was performed by one-way ANOVA). All experiments were performed in triplicate.

[9] = tested on: Jurkat cells; test: Cytochrome C assay (flow cytometry); format: cell-based, Human; settings: compound at CC50 concentration, 6 h (Figure 4; method says four hours)
Text: The quantification of cytochrome c release from the mitochondria in apoptotic cells was used to detect the mitochondrial pathway of apoptosis in the cells by flow cytometry. This study employed a direct labeling method that utilized an anti-cytochrome cFITC antibody, an anti-IgG1-FITC isotype control, and optimized fixation, permeabilization, and blocking buffers to detect cytochrome c by flow cytometry (Luminex®, Austin, TX, USA). […] The Jurkat cells were exposed to test substances at concentrations corresponding to their 24-h CC50 in these cells for a period of four hours. Thereafter, analysis by flow cytometry (NovoCyte Flow Cytometry™ Agilent, San Diego, CA, USA) was conducted. The acquired data were processed using NovoExpress® software (version 1.6.2) (ACEA (Agilent, Santa Clara, CA, USA)).
Figure 4 Detection of cytochrome c in Jurkat cells stained with a FlowCellect Cytochrome c Kit. The control compound, carbonyl cyanide m-chlorophenylhydrazone (CCCP), was administered at a concentration equal to its CC50 value. Compound 9d was added to the sample cells at a CC50 concentration (see the table of cell viability). The cells were incubated for 6 h. We compared the numerical values to determine the reliability of the differences observed between the control sample and the samples treated with the synthesized substances. […]

SMILES | CC50 [1] [nM] | CC50 [2] [nM] | CC50 ([3]; Homo sapiens, U-937, 24 h) [nM] | CC50 [4] [nM] | CC50 at 24 h [5] [nM] | CC50 at 24 h [6] [nM] | CC50 ([7]; K562, HEK293, and HeLa) [nM] | CC50 ([7]; individual cell cultures Jurkat, U937) [nM] | Jurkat cells with reduced mitochondrial membrane potential (Δψ dissipation) [8] [%] | cells releasing cytochrome c into the cytoplasm (Cytochrome loss %) [9] [%] | CC50 [3] [nM]
O=C1CCCC/C=C\CC/C=C\CCCCC(=O)OCCCCC/C=C\CC/C=C\CCCCCO1 [Compound 8c] | 17.8 ± 1.73 | 16.9 ± 1.62 | 15.5 ± 1.49 | 14.7 ± 1.42 | 47.3 ± 4.22 | 64.8 ± 6.35 | – | – | – | – | –
O=C1CC/C=C\CC/C=C\CCC(=O)OCCCCCC/C=C\CC/C=C\CCCCCCO1 [Compound 9a] | 24.2 ± 2.39 | 20.4 ± 1.89 | 19.8 ± 1.97 | 20.2 ± 2.17 | 54.9 ± 5.37 | 79.9 ± 6.9 | – | – | – | – | –
O=C1CCCCCC(=O)OCCCCCC/C=C\CC/C=C\CCCCCCO1 | – | – | – | – | – | – | 60 to 150 | 10 to 20 | – | – | –
O=C1CCCC/C=C\CC/C=C\CCCCC(=O)OCCCCCC/C=C\CC/C=C\CCCCCCO1 [Compound 9c] | 17.3 ± 1.59 | 14.7 ± 1.49 | 13.1 ± 1.31 | 12.8 ± 1.37 | 49.2 ± 4.77 | 59.4 ± 5.29 | – | – | – | – | –
O=C1CCCC/C=C\CC/C=C\CCCCC(=O)OCCC/C=C\CC/C=C\CCCO1 [Compound 6c] | 22.1 ± 2.14 | 19.7 ± 1.63 | 19.2 ± 1.87 | 20.1 ± 1.95 | 42.8 ± 4.39 | 58.9 ± 5.81 | – | – | – | – | –
O=C1CC/C=C\CC/C=C\CCC(=O)OCCCC/C=C\CC/C=C\CCCCO1 [Compound 7a] | 26.4 ± 2.46 | 23.6 ± 2.14 | 22.2 ± 2.34 | 20.4 ± 2.07 | 49.9 ± 4.83 | 67.2 ± 6.39 | – | – | – | – | –
O=C1CCC/C=C\CC/C=C\CCCC(=O)OCCC/C=C\CC/C=C\CCCO1 [Compound 6b] | 21.2 ± 1.97 | 21.5 ± 2.01 | 22.4 ± 2.24 | 20.4 ± 2.1 | 46.2 ± 3.75 | 61.9 ± 6.27 | – | – | – | – | –
O=C1CCC/C=C\CC/C=C\CCCC(=O)OCCCCC/C=C\CC/C=C\CCCCCO1 [Compound 8b] | 21 ± 2.34 | 19.2 ± 1.79 | 17.9 ± 1.83 | 18.7 ± 1.71 | 48.2 ± 4.34 | 67.2 ± 6.24 | – | – | – | – | –
O=C1CCC/C=C\CC/C=C\CCCC(=O)OCCCC/C=C\CC/C=C\CCCCO1 [Compound 7b] | 20.3 ± 2.04 | 18.1 ± 1.83 | 17.4 ± 1.71 | 18.2 ± 1.76 | 53.1 ± 4.96 | 62.6 ± 5.94 | – | – | – | – | –
O=C1CCCCC/C=C\CC/C=C\CCCCCC(=O)OCCC/C=C\CC/C=C\CCCO1 [Compound 6d] | 18.5 ± 1.78 | 16.9 ± 1.88 | 15.2 ± 1.56 | 15.7 ± 1.43 | 44.3 ± 4.21 | 59.4 ± 5.46 | – | – | 58.99 | – | –
O=C1CCCCC/C=C\CC/C=C\CCCCCC(=O)OCCCC/C=C\CC/C=C\CCCCO1 [Compound 7d] | 18.1 ± 1.91 | 17.1 ± 1.84 | 15.1 ± 1.43 | 14.5 ± 1.57 | 48.6 ± 4.82 | 60.2 ± 5.21 | – | – | 69.26 | – | –
O=C1CCCC/C=C\CC/C=C\CCCCC(=O)OCCCC/C=C\CC/C=C\CCCCO1 [Compound 7c] | 18.4 ± 1.86 | 16.7 ± 1.59 | 17.3 ± 1.62 | 15.3 ± 1.48 | 46.3 ± 3.99 | 59.5 ± 5.37 | – | – | – | – | –
N#CC(C#N)=NNc1cccc(Cl)c1 [CCCP, carbonyl cyanide-m-chlorophenylhydrazone, reference compound] | – | – | – | – | – | – | – | – | – | 79.35 | –
O=C1CC/C=C\CC/C=C\CCC(=O)OCCC/C=C\CC/C=C\CCCO1 [Compound 6a] | 28.3 ± 2.65 | 24.8 ± 2.37 | 23.1 ± 2.11 | 19.8 ± 1.81 | 52.3 ± 5.17 | 76.2 ± 7.62 | – | – | – | – | –
O=C1CCC/C=C\CC/C=C\CCCC(=O)OCCCCCC/C=C\CC/C=C\CCCCCCO1 [Compound 9b] | 18.3 ± 2.04 | 17.3 ± 1.64 | 15.7 ± 1.53 | 15.6 ± 1.49 | 52 ± 5.43 | 61.6 ± 5.92 | – | – | – | – | –
O=C1CC/C=C\CC/C=C\CCC(=O)OCCCCC/C=C\CC/C=C\CCCCCO1 [Compound 8a] | 25.3 ± 2.63 | 22.3 ± 2.16 | 23.4 ± 2.27 | 21.8 ± 1.96 | 64.3 ± 5.37 | 86.4 ± 7.11 | – | – | – | – | –
O=C1CCCCC/C=C\CC/C=C\CCCCCC(=O)OCCCCC/C=C\CC/C=C\CCCCCO1 [Compound 8d] | 16.1 ± 1.58 | 15.2 ± 1.46 | 12.2 | 11.1 ± 1.39 | 51.1 ± 5.6 | 63.7 ± 6.07 | – | – | 75.42 | – | 12.2 ± 1.37
